The source of these data is publication PMC2931832 (ACS medicinal chemistry letters, 2010).

The subject of data set [1] is H1299 lung tumor cell. Kind of data set: cell culture-based proliferation assay, H1299. To be noted: Homo sapiens, NCI-H1299, read-out: IC50 of H1299 tumor cell growth.
Data set [2] has as its target human Ether-a-go-go Related Gene (hERG) K+ channel (Homo sapiens, UniProt Q12809). Briefly: hERG K+ channel binding / blockage. The settings on record: 6 µM of compound. (In general: The hERG channel carries a current that helps repolarise heart muscle cells.)
In data set [3] the target is EGFR (Homo sapiens, UniProt P00533). Kind of data set: EGFR kinase activity, fluorescence-based coupled-enzyme assay. Format: biochemical.
Data set [4] concerns the target CYP2C9 (Homo sapiens, UniProt P11712). Briefly: cytochrome p450 CYP2C9 inhibition. The settings on record: 6 µM of compound.
For data set [5], the system named is breast, ovarian and lymphatic leukemia. To be noted: cited from earlier work.
Data set [6] relates to H460 lung tumor cell. Briefly: cell culture-based proliferation assay, H460. The settings on record: Homo sapiens, NCI-H460, read-out: IC50 of H460 tumor cell growth.

A word on the IC50: it is the concentration at which inhibition is half-maximal.

CYP2C9, sequence (P11712 whole entry): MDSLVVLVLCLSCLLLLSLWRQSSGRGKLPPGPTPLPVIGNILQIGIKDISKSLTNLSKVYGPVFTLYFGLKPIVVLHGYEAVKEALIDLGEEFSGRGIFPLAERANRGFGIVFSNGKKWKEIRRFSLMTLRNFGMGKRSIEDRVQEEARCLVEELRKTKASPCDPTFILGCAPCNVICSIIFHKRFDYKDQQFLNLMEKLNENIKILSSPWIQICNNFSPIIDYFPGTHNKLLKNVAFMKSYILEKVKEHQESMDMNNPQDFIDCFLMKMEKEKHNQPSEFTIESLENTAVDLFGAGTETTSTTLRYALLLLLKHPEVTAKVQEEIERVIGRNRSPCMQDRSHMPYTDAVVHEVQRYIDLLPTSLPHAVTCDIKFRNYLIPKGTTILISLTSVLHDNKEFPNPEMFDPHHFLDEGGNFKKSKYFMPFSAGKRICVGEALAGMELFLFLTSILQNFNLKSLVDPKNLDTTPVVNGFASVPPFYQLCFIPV
EGFR, sequence (P00533 25-1210): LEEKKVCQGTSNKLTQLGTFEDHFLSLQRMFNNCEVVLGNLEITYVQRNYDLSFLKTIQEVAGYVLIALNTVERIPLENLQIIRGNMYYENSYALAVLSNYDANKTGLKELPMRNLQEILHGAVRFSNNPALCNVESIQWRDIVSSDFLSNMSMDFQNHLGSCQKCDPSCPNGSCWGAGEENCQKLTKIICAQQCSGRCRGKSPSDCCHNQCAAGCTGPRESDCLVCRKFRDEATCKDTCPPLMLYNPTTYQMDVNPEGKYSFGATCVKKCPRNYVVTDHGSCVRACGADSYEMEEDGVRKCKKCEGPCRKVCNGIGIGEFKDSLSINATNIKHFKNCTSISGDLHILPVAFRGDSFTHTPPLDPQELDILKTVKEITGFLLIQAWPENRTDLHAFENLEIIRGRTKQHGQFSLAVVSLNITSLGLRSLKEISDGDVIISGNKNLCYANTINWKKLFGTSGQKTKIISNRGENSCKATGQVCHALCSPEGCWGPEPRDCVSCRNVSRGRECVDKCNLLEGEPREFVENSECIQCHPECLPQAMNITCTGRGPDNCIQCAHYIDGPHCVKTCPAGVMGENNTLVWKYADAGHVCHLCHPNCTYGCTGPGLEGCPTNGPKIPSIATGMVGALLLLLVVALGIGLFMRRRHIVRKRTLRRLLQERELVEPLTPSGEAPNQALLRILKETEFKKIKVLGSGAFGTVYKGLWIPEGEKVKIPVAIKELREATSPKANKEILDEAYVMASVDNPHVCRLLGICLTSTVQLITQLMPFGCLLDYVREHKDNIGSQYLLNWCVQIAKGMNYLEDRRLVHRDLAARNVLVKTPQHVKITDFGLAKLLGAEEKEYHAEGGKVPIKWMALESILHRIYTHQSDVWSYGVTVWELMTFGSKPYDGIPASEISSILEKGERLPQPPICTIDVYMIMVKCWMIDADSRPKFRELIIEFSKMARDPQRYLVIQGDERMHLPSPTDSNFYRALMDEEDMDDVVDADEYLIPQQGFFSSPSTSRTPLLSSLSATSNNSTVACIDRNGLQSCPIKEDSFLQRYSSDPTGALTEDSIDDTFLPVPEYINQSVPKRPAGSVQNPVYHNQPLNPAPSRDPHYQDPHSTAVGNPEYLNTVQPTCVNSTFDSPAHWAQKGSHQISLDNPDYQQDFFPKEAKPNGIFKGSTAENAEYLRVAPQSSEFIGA
human Ether-a-go-go Related Gene (hERG) K+ channel, sequence (Q12809 whole entry): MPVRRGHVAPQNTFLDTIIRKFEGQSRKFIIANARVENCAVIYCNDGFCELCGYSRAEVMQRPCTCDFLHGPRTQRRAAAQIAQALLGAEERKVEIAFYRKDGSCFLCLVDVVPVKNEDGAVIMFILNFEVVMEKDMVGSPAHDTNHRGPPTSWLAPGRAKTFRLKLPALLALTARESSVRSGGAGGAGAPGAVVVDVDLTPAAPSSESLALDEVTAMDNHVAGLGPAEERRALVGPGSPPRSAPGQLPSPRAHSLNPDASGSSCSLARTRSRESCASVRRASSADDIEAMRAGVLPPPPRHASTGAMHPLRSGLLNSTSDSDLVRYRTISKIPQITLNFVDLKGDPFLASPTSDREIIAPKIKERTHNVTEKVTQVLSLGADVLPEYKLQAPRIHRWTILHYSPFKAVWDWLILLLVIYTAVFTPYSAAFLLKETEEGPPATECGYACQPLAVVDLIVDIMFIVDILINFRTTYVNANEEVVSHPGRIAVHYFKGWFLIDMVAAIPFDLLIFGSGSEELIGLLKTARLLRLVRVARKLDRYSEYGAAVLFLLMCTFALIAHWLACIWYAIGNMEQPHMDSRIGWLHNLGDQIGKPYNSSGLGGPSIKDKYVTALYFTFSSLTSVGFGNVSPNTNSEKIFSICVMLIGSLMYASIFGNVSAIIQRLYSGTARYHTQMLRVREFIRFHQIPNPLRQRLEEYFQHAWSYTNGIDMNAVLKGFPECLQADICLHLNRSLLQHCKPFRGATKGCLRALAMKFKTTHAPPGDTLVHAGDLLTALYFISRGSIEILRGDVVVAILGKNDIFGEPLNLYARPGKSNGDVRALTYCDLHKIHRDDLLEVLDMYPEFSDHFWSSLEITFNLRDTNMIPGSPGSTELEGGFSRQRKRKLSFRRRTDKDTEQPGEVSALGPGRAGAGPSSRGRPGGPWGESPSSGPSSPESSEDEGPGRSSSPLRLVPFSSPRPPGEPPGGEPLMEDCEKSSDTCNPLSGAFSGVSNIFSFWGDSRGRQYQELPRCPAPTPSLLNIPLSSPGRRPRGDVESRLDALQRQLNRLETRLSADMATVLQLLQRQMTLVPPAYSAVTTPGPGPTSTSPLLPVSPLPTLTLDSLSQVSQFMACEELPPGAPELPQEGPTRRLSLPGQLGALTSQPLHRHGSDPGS

For the molecule `C[C@H]1Oc2cc3c(-c4c(O)cc(O)c5c(O)c6c(cc45)O[C@H](C)[C@@H](C)C6=O)c(O)cc(O)c3c(O)c2C(=O)[C@@H]1C` [Compound 12, Chaetochromin A], the results for the IC50 in data set [1] and in data set [3] were roughly 1 µM and 250 nM, respectively. In addition, the “hERG K+ channel blockage (in words)” value in data set [2] is listed as “significant blockage”. Moreover, the “inhibition of CYP2C9 (in words)” value in data set [4] was “significant inhibition”. Also, the “efficacy in breast, ovarian and lymphatic leukemia” value in data set [5] is given as “shown efficacy”.

Consider `C#Cc1cccc(Nc2ncnc3cc(OCCOC)c(OCCOC)cc23)c1` [erlotinib, reference compound], for which the IC50 in data set [1] and in data set [6] was roughly 10 µM in each case. The “inhibition of CYP2C9 (in words)” value in data set [4] is recorded as “little inhibition”.
